PMC8528214 (RSC Medicinal Chemistry, 2021)

Columns and labels:
HDAC-8 = molecular target: T1, HDAC-8 (Homo sapiens, UniProt Q9BY41); assay: HDAC in vitro inhibition assay; type: biochemical
T1 sequence (Q9BY41 1-377): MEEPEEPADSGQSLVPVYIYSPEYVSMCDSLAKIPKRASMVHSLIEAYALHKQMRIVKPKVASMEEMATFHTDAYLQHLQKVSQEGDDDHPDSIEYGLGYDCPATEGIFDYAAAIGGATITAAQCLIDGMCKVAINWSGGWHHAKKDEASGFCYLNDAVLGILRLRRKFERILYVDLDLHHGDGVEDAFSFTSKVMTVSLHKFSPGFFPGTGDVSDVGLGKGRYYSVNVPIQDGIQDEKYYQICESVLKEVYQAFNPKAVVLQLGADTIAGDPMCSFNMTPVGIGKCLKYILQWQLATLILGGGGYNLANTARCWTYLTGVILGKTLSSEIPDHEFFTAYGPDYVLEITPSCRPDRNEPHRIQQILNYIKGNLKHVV

MMP-8 = MMP-8 (Homo sapiens, UniProt P22894); assay: MMP in vitro inhibition assay, MMP-8; type: biochemical
Sequence of MMP-8 (P22894 101-467): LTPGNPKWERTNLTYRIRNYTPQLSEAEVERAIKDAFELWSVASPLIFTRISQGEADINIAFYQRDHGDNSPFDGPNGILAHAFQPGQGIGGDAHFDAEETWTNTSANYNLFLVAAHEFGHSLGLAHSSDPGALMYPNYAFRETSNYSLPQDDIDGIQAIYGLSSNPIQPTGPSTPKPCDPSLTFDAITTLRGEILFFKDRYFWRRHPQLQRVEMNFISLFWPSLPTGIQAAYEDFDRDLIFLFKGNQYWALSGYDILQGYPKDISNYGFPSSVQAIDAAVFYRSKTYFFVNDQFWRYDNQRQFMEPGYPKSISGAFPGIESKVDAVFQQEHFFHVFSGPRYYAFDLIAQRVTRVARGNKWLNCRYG

MMP-1 = molecular target: T2, MMP-1 (Homo sapiens, UniProt P03956); assay: MMP in vitro inhibition assay, MMP-1; type: biochemical
T2 sequence (P03956 100-469): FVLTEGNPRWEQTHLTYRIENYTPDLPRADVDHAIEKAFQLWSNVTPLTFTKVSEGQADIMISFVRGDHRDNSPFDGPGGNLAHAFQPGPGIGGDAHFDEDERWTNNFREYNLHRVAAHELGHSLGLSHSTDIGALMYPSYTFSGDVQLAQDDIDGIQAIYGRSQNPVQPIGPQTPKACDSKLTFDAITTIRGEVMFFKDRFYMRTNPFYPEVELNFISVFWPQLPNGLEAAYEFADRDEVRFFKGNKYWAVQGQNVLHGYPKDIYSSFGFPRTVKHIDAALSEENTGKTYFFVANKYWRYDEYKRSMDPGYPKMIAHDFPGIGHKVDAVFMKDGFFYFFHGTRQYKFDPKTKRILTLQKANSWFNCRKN

MMP-7 = molecular target: T3, MMP-7 (Homo sapiens, UniProt P09237); assay: MMP in vitro inhibition assay, MMP-7; type: biochemical
T3 sequence (P09237 95-267): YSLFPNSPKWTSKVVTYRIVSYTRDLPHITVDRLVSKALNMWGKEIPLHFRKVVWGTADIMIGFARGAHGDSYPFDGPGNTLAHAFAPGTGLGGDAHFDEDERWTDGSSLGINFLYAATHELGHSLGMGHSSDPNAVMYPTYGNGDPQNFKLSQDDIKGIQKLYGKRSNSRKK

MMP-2 = molecular target: T4, MMP-2 (Homo sapiens, UniProt P08253); assay: MMP in vitro inhibition assay, MMP-2; type: biochemical
T4 sequence (P08253 110-660): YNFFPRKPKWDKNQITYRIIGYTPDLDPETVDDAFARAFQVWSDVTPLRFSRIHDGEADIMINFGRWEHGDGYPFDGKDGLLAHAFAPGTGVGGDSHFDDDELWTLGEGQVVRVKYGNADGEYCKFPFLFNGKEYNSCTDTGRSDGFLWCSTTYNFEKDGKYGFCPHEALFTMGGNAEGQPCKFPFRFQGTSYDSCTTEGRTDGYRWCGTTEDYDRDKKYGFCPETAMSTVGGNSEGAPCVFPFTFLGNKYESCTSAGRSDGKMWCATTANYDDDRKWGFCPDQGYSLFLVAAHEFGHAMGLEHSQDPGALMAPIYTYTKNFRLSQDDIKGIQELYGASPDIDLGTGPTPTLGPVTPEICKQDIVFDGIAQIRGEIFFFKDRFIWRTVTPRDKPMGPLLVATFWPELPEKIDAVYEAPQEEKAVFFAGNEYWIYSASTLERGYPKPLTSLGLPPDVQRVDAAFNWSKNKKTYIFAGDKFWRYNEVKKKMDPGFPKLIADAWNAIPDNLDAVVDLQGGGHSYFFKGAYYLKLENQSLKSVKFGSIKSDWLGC

MMP-14 = MMP-14 (Homo sapiens, UniProt P50281); assay: MMP in vitro inhibition assay, MMP-14; type: biochemical
HDAC-3 = HDAC-3 (Homo sapiens, UniProt O15379); type: biochemical
Sequence of HDAC-3 (O15379 whole entry): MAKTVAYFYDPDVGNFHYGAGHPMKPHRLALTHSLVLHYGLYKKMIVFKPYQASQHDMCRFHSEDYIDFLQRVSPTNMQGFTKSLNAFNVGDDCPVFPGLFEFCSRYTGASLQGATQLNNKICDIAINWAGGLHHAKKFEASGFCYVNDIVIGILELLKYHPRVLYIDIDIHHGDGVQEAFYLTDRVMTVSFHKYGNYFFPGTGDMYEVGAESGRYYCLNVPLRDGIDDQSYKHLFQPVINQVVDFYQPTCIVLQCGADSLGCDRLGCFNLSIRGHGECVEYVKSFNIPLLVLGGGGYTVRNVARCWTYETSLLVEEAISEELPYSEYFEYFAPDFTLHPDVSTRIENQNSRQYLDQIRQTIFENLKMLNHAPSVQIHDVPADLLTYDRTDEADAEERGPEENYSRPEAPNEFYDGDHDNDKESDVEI
Sequence of HDAC-3 (Q9Y618 395-489 partner limits assumed): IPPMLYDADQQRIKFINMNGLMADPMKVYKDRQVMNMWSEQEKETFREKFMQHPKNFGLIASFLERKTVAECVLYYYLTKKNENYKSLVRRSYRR

HEK293 = conditions: at 100 μM; cited from earlier work
[1] = tested on: Galleria mellonella larvae infection model; conditions: cited from earlier work
HepG2 = conditions: at 100 μM; cited from earlier work
zebrafish embryos = conditions: cited from earlier work
collagenase H (ColH) = conditions: cited from earlier work; for ColH inhibitory activity: tested in their thiocarbamate form
A549 = conditions: at 100 μM; cited from earlier work
MMP-3 = MMP-3 (Homo sapiens, UniProt P08254); assay: MMP in vitro inhibition assay, MMP-3; type: biochemical
Sequence of MMP-3 (P08254 100-477): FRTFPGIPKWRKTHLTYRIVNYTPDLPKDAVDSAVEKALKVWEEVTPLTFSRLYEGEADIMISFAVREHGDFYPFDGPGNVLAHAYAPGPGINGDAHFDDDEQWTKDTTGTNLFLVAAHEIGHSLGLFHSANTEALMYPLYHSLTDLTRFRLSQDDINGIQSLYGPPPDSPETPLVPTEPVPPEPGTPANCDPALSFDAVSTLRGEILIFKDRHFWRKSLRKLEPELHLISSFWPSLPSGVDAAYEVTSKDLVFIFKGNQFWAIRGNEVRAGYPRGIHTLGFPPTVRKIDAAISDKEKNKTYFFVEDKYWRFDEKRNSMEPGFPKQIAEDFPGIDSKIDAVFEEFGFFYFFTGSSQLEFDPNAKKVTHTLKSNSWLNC

[2] = tested on: NDM-1-expressing K. pneumoniae (T2301); assay: Growth inhibition assay; conditions: imipenem alone at 8 μg mL−1 (0.5× MIC)

O=C(CS)Nc1ccc(Cl)c(Cl)c1 [Compound 1]
inhibition at 100 μM, HDAC-8 (HDAC-8): no inhibition | inhibition at 100 μM, MMP-8 (MMP-8; 100 μM): no inhibition | inhibition at 100 µM (MMP-8; read-out: inhibition at 100 μM, MMP-8): ≤ 10% | inhibition at 100 μM, MMP-1 (MMP-1; 100 μM): no inhibition | inhibition at 100 µM (MMP-1; read-out: inhibition at 100 μM, MMP-1): ≤ 10% | inhibition at 100 μM, MMP-7 (MMP-7; 100 μM): no inhibition | inhibition at 100 µM (MMP-7; read-out: inhibition at 100 μM, MMP-7): ≤ 10% | inhibition at 100 μM, MMP-2 (MMP-2; 100 μM): no inhibition | inhibition at 100 µM (MMP-2; read-out: inhibition at 100 μM, MMP-2): ≤ 10% | inhibition at 100 μM, MMP-14 (MMP-14; 100 μM): no inhibition | inhibition at 100 µM (MMP-14; read-out: inhibition at 100 μM, MMP-14): ≤ 10% | inhibition at 100 μM, HDAC-3 (HDAC-3): no inhibition | cytotoxicity against HEK293 (HEK293): did not show any cytotoxicity | in vivo efficacy [1]: in vivo efficacy | cytotoxicity against HepG2 (HepG2): did not show any cytotoxicity | maximum tolerated concentration (MTC) (zebrafish embryos): 10 µM | ColH inhibitory activity (collagenase H (ColH)): micromolar activities | cytotoxicity against A549 (A549): did not show any cytotoxicity | inhibition at 100 μM, MMP-3 (MMP-3; 100 μM): no inhibition | inhibition at 100 µM (MMP-3; read-out: inhibition at 100 μM, MMP-3): ≤ 10%

O=C(CS)Nc1ccccc1Cl [Compound 26]
ColH inhibitory activity (collagenase H (ColH)): micromolar activities

CC(=O)c1ccc(NC(=O)CS)cc1 [Compound 28]
ColH inhibitory potency (collagenase H (ColH)): nanomolar

C[C@@H](O)[C@H]1C(=O)N2C(C(=O)O)=C(SCCNC=N)C[C@H]12 [imipenem]
Growth of imipenem-treated bacteria vs imipenem-free control after 24 hours [2]: no relevant differences
